Among the data in a melting point compilation (Tetko et al.; mined from patent text by program, amines drawn as free bases though some values may be those of a salt) are melting point values, retold here.

Residues, ends and D or L forms follow the SMILES beside them. *: point of attachment. ONp = O=[N+]([O-])c1ccc(O*)cc1

By melting point is commonly meant the temperature, or range, at which the solid turns liquid. The compound `CCOC(=O)C(NC(C)=O)(C(=O)OCC)C1=Nc2ccc(C#N)cc2C(c2ccccc2F)=NC1` registered a melting point of 138 to 140 °C.
The value for `CC(C)Oc1c(F)cc2c(O)c(C(=O)NCc3ccc(Cl)cc3)cnc2c1F` was 207 to 209 °C; that for `C#Cc1cc(F)c(-n2c(=O)cc(C(F)(F)F)n(C)c2=O)cc1OCC` was 140 °C.
The value for `O=C(O)c1cc(O)c2c3c(cc(Br)c2n1)S(=O)c1ccccc1-3` (stereo not given) was 289 to 290 °C; that for `Cc1nc(-n2cccc(O)c2=O)sc1C(=O)NCc1ccccc1` was 225 to 228 °C.
The value for `Cc1cc(C)c(C)c(COc2cccc(-c3ccoc3C(=O)NNC(=O)c3ccc(O)c([N+](=O)[O-])c3)c2)c1C` was 140 to 142 °C; that for `O=C(Nc1cc(Cl)ccc1C(=O)O)NS(=O)(=O)c1ccc(OCCN2CCN(c3ccccc3)CC2)cc1` was 177 to 179 °C.
In the case of `COc1ccc(C2=NN(C3CCN(C(=O)CCSCCN)CC3)C(=O)[C@@H]3CC=CC[C@H]23)cc1OC`, the melting point was 137 to 139 °C.
The same measure for `CC(C)CC(NC(=O)C1CCCN1)C(=O)NCC(=O)Oc1ccc([N+](=O)[O-])cc1` (stereo not drawn) (H-Pro-Leu-Gly-ONp; configuration not given here): 173 °C; for `O=[N+]([O-])c1c(-c2ccc(Cl)cc2)[nH]c(C(F)(F)F)c1-c1csc(Br)c1Br`: 241 to 242 °C.
The value for `COc1nc2ccccc2cc1/C=C/c1cc(CN2CCN(S(C)(=O)=O)CC2)ccc1[N+](=O)[O-]` was 156 to 157 °C; that for `Nc1ncc2cc(-c3c(Cl)cccc3Cl)c(=O)n(Cc3c(Cl)cccc3Cl)c2n1` was 274 to 276 °C; that for `CC1=C(C(=O)Nc2ccccc2)OCCO1` was 85 to 87 °C.
Take `O=C(CCl)Nc1ccc2[nH]ncc2c1`: the melting point was 175 to 178 °C.
Consider `CC(C)(O)c1ccc(Cl)c2nc3n(c12)CCCN3c1ccc(Cl)cc1Cl`, for which the melting point lay within 216 to 218 °C.
The same measure for `C=CCOc1cccc(C(=O)O)c1C(=O)O`: 166 to 167 °C; for `NC(=O)C(O)c1c(Cl)cccc1Cl` (stereo not given): 155 to 158 °C; for `CCCNC(=O)Nc1ccc2oc([N+](=O)[O-])c(-c3ccccc3)c2c1`: 199 to 201 °C.
`O=C1NC(=Cc2ccc(Cl)cc2)C(=O)C1=NO` came in with a melting point of 190 °C.
Regarding `Cc1ccc2c(c1)c(=O)c1c(cnn1C)n2CC(N)=O`, the melting point lay in the range of 247 to 252 °C.
The value for `C=CC(=O)NCN1CCCC1=O` was 73 to 74 °C; that for `Nc1ccc(-c2ncnn2-c2ccc(Br)cc2)cc1` was 128 to 130 °C; that for `N#CCc1ccc([N+](=O)[O-])c2[nH]ncc12` was 198 to 200 °C.
The same measure for `O=C1Cc2cccc(Oc3ccc(Cl)cc3)c2O1`: 100 to 102 °C; for `C[C@H](NC(=O)CCS)C(=O)O`: 64 °C.
The same measure for `Cc1cccc(C2(O)CCN(CC3CCc4ccccc4C3=O)CC2)c1` (stereo not given): 157 to 159 °C.
The compound `COC(=O)C(=O)c1ccc(OCCOc2ccc3cc4ccccc4cc3c2)cc1` showed a melting point of 188 to 189 °C.
The value for `O=c1c2c(CCC(F)(F)F)n[nH]c2c2cccnc2n1-c1ccccc1` was 272 to 274 °C.
The value for `O=c1c2ccc(Cl)cc2[nH]c2c(=O)n(CCO)nc(O)c12` was 377 to 378 °C; that for `CC(=O)Nc1ccc(SCCN2CC=C(c3ccc(F)cc3)CC2)cc1` was 150 to 152 °C; that for `Cc1ccnc2c1C(=O)CC(c1cccs1)C2` (stereo not given) was 105 to 107 °C.
The same measure for `CC(C)(C)c1ccc(SN2CCOC2=O)cc1`: 76 to 81 °C.
`N#CCCNC(=O)c1cccc(-c2cccc3c2CN(Cc2cccc(C(F)(F)F)c2)CC3)c1` yielded a melting point of 114 to 117 °C.
The value for `Clc1ccc(N=Cc2ccc(-c3noc4ccccc34)cc2)cc1` was 164 to 165 °C; that for `Cc1cc(Br)ccc1C(=O)N=CN(C)C` was 87 to 89 °C.
